Results on 1 compound are retold here after ChEMBL document CHEMBL4665634, “Inhibiting Aβ toxicity in Alzheimer's disease by a pyridine amine derivative” (Eur J Med Chem, 2019).

A short description of assay [1]: Metal chelating activity assessed as Zn2+-compound complex formation by measuring binding constant in 0.1 M KNO3 at 25 degreeC.
Assay [2] is described as follows: Metal chelating activity assessed as Cu2+-compound complex formation by measuring binding constant in 0.1 M KNO3 at 25 degreeC.

With `c1ccc(CNCc2ccccn2)nc1`, the log K in assay [1] was 7.6; in assay [2] it was 9.3.
